Molecules are shown by their SMILES.

Test [1] concerns the target T1, Alpha-mannosidase (Canavalia ensiformis) (UniProt C0HJB3).
T1 sequence (whole entry): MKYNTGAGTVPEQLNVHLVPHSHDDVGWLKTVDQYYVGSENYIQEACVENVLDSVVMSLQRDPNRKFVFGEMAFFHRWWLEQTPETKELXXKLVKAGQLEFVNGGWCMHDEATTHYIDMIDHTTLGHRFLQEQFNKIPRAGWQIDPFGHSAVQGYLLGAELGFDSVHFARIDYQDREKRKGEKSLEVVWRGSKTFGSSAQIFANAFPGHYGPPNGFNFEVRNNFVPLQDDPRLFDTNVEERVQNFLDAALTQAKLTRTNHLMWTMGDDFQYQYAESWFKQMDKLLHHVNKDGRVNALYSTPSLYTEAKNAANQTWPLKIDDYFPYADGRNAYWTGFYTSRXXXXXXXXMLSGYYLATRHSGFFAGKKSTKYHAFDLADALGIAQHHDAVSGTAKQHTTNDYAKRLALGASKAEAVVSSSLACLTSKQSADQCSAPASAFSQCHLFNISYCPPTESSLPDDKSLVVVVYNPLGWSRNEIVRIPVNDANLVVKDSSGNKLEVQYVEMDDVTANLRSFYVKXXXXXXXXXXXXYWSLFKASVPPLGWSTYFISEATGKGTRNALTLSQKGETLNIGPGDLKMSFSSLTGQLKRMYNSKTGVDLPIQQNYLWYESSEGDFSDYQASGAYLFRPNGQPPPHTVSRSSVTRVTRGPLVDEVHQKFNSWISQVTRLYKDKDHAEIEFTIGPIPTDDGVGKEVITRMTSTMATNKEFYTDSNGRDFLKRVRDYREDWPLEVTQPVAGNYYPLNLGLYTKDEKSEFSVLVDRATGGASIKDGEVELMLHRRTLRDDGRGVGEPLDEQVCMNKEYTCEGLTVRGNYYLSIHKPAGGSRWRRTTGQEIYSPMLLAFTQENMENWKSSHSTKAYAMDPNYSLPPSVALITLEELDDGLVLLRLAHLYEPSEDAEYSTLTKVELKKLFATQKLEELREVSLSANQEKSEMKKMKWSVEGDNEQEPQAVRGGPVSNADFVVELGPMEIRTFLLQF
Nature of the test: Inhibition of jack bean alpha-mannosidase assessed as reduction of p-nitrophenol release using p-nitrophenyl glycoside as substrate at 1000 uM by spectrophotometric analysis relative to control.

For test [2], the system named is Penicillium decumbens. Kind of test: Inhibition of Penicillium decumbens alpha-L-rhamnosidase assessed as reduction of p-nitrophenol release using p-nitrophenyl-glycoside as substrate at 1000 uM by spectrophotometric analysis relative to control.
Test [3] can be described thus: Inhibition of bovine liver beta-glucosidase assessed as reduction of p-nitrophenol release using p-nitrophenyl glycoside as substrate by spectrophotometric analysis. Also noted: species or system Bos taurus.
Test [4] has as its target Alpha-galactosidase (Coffea arabica) (UniProt Q42656). Nature of the test: Inhibition of coffee beans alpha-galactosidase assessed as reduction of p-nitrophenol release using p-nitrophenyl glycoside as substrate at 1000 uM by spectrophotometric analysis relative to control.
For test [5], the target named is Alpha-glucosidase (Saccharomyces cerevisiae S288c, UniProt P53341+P38158+P07265). Nature of the test: Inhibition of yeast alpha-glucosidase assessed as reduction of p-nitrophenol release using p-nitrophenyl glycoside as substrate by spectrophotometric analysis. It is filed as protein assay.
Test [6] in a line: Inhibition of bovine liver beta-galactosidase assessed as reduction of p-nitrophenol release using p-nitrophenyl glycoside as substrate by spectrophotometric analysis. Further details: species or system Bos taurus.
The nature of test [7]: Inhibition of rice alpha-glucosidase assessed as reduction of p-nitrophenol release using p-nitrophenyl glycoside as substrate by spectrophotometric analysis. Further details: species or system Oryza sativa.
Test [8] can be described thus: Inhibition of rat intestinal maltase assessed as D-glucose release using maltose as substrate at pH 6.8 by colorimetric method.
The nature of test [9]: Inhibition of human lysosomal beta-glucosidase assessed as reduction of p-nitrophenol release using p-nitrophenyl glycoside as substrate by spectrophotometric analysis.
In test [10] the target is T2, Tissue alpha-L-fucosidase (Bos taurus) (UniProt Q2KIM0).
T2 sequence (whole entry): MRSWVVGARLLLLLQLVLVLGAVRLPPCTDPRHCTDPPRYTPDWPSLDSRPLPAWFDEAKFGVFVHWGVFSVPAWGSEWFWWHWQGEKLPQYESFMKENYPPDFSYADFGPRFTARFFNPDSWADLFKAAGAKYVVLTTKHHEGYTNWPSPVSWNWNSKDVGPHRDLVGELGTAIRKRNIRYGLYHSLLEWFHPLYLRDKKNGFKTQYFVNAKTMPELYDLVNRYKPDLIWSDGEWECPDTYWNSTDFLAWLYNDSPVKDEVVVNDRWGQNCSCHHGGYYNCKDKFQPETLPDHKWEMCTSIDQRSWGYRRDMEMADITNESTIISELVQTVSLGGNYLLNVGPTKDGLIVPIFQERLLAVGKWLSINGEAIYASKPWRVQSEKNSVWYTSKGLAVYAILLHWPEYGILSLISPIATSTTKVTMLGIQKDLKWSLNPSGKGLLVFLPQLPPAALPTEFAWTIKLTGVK
Nature of the test: Inhibition of bovine kidney alpha-L-fucosidase assessed as reduction of p-nitrophenol release using p-nitrophenyl glycoside as substrate at 1000 uM by spectrophotometric analysis relative to control.

Test [11] has as its system Helix pomatia. Kind of test: Inhibition of snail beta-mannosidase assessed as reduction of p-nitrophenol release using p-nitrophenyl glycoside as substrate at 1000 uM by spectrophotometric analysis relative to control.
Test [12] concerns the target Beta-glucuronidase (Escherichia coli (strain K12), UniProt P05804). Nature of the test: Inhibition of Escherichia coli beta-glucuronidase assessed as reduction of p-nitrophenol release using p-nitrophenyl-glycoside as substrate by spectrophotometric analysis.
Test [13] is filed under the species Sus scrofa. Kind of test: Inhibition of porcine kidney alpha/alpha-trehalase assessed as reduction of p-nitrophenol release using p-nitrophenyl glycoside as substrate at 1000 uM by spectrophotometric analysis relative to control.
A short description of test [14]: Inhibition of Aspergillus niger amyloglucosidase assessed as reduction of p-nitrophenol release using p-nitrophenyl-glycoside as substrate by spectrophotometric analysis.
The species entered for test [15] is Bos taurus. Kind of test: Inhibition of bovine liver beta-glucuronidase assessed as reduction of p-nitrophenol release using p-nitrophenyl-glycoside as substrate at 1000 uM by spectrophotometric analysis relative to control.
Test [16] can be described thus: Inhibition of almond beta-glucosidase assessed as reduction of p-nitrophenol release using p-nitrophenyl glycoside as substrate by spectrophotometric analysis. Also noted: species or system Prunus dulcis.
Test [17] concerns the target Alpha-glucosidase (Saccharomyces cerevisiae S288c) (UniProt P53341+P38158+P07265). Nature of the test: Inhibition of yeast alpha-glucosidase assessed as reduction of p-nitrophenol release using p-nitrophenyl glycoside as substrate at 1000 uM by spectrophotometric analysis relative to control. It is filed as protein assay.
Test [18] concerns Oryza sativa. Nature of the test: Inhibition of rice alpha-glucosidase assessed as reduction of p-nitrophenol release using p-nitrophenyl glycoside as substrate at 1000 uM by spectrophotometric analysis relative to control.
Test [19] has as its system Aspergillus niger. Kind of test: Inhibition of Aspergillus niger amyloglucosidase assessed as reduction of p-nitrophenol release using p-nitrophenyl-glycoside as substrate at 1000 uM by spectrophotometric analysis relative to control.
The species entered for test [20] is Rattus norvegicus. Nature of the test: Inhibition of rat intestinal maltase assessed as D-glucose release using maltose as substrate at pH 6.8 at 1000 uM by colorimetric method relative to control.

Chain of Beta-glucuronidase (P05804 whole entry): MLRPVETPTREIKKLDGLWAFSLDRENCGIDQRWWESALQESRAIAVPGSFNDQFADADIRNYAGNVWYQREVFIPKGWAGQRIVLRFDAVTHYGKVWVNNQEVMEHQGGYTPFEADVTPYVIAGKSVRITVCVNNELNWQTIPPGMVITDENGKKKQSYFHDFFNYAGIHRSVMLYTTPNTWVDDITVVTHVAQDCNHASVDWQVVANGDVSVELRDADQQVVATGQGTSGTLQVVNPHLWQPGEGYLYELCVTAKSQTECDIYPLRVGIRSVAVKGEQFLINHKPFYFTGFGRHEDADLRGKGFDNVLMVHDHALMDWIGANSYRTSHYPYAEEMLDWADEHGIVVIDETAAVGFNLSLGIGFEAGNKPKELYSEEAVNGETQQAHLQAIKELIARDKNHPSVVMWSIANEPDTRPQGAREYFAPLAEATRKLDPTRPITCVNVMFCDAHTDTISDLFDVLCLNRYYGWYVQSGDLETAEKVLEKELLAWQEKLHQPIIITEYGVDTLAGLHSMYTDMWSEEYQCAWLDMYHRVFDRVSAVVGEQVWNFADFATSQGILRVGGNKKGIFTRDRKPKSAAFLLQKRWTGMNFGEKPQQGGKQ
Chain of Alpha-galactosidase (Coffea arabica) (Q42656 16-378 limits assumed): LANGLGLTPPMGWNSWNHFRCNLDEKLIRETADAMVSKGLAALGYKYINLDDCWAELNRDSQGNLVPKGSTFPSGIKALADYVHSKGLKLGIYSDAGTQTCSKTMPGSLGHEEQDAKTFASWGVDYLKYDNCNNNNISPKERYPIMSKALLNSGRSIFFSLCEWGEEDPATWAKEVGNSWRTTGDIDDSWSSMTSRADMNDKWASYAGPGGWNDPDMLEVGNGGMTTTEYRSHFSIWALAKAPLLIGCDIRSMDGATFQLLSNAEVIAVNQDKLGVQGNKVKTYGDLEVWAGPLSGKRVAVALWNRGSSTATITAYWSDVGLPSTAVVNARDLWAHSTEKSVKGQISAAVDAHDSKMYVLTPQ

For the compound `Cl.OC[C@H]1N[C@H](CCCCCCCc2ccc(Cl)cc2)[C@@H](O)[C@@H]1O`, the inhibition was 0% in test [1]; 11.2% in test [2]; 2.6% in [4]; 0% in test [10]; 34.9% in test [11]; 7.7% in test [13]. Further, in [15], the inhibition amounted to 6%. For the same compound, the IC50 in test [3] came out at 0.054 µM; in [5], 40 µM; in test [6], 0.014 µM; in [7] it was 15 µM; in test [8], 14 µM; in test [9] it was 6.7 µM. For the same compound, the IC50 in [12] was determined as 22 µM; in test [14], 43 µM; in test [16] it was 13 µM.

Consider `OC[C@H]1N[C@H]([C@@H](O)CCCCCCc2ccc(F)cc2)[C@@H](O)[C@@H]1O`, for which the inhibition in test [1] came out at 0%; in [2] it was 4%; in test [4], 0.6%; in [17], 42.8%; in [18], 21.3%; in [10] it was 1.5%. In addition, the inhibition turned out to be 46.3% in test [11]; 7.5% in test [13]; 46.4% in test [19]; 23.9% in test [20]; 0.3% in test [15]. Also, the IC50 in test [3] turned out to be 0.09 µM; in test [6] it was 0.025 µM; in test [9] it was 5.2 µM; in [12], 62 µM; in test [16] it was 0.47 µM.

For the compound `Cl.OC[C@H]1N[C@H]([C@@H](O)CCCCCCc2ccc(Cl)cc2)[C@@H](O)[C@@H]1O`, the inhibition in test [1] was found to be 0%; in [2], 3.5%; in [4], 0%; in [18] it was 16.5%; in [10], 2.1%; in test [11] it was 45.4%. The inhibition stood at 5.5% in test [13], 41.7% in [19], 1.1% in [20] and 0% in test [15]. In addition, the IC50 in test [3] was 0.07 µM; in test [5], 59 µM; in test [6], 0.024 µM; in test [9], 6.1 µM; in test [12] it was 13 µM; in [16], 1.2 µM.

For the compound `Cl.OC[C@H]1N[C@H](CCCCCCCc2cccc(F)c2)[C@@H](O)[C@@H]1O`, the inhibition worked out at 3.1% in test [1]; 10% in [2]; 1.1% in [4]; 21.3% in test [18]; 2.7% in test [10]; 36.6% in test [11]. For the same compound, the inhibition in test [13] was found to be 7.5%; in test [20], 32.8%; in test [15], 6.9%. For the same compound, the IC50 in [3] was 0.04 µM; in test [5], 17.2 µM; in test [6], 0.011 µM; in test [12] it was 19.4 µM; in [14], 40.9 µM; in [16], 11.5 µM.

As for `OC[C@H]1N[C@H]([C@@H](O)CCCCCCc2ccc(F)c(F)c2)[C@@H](O)[C@@H]1O`, the inhibition in test [1] was 0%; in test [2] it was 2.2%; in [4], 0%; in test [17], 25.2%; in test [18] it was 18.4%; in test [10], 0.3%. Also, the inhibition in test [11] was 48.6%; in test [13] it was 0%; in test [20] it was 15%; in test [15], 1.6%. For the same compound, the IC50 was 0.09 µM in [3]; 0.026 µM in test [6]; 3.8 µM in test [9]; 25 µM in [12]; 59 µM in [14]; 1.5 µM in test [16].

On to `Cc1ccc(CCCCCCC[C@H]2N[C@H](CO)[C@@H](O)[C@@H]2O)cc1.Cl`, for which the inhibition was 3.5% in test [1]; 14.5% in test [2]; 9.7% in test [4]; 34.4% in [18]; 8.6% in test [10]; 37% in test [11]. In addition, the results for the inhibition in test [13], in [20] and in [15] were 3.5%, 49.9% and 0%, respectively. Moreover, the 50% inhibitory concentration (IC50) in [3] came out at 0.034 µM; in test [5] it was 92 µM; in [6], 0.008 µM; in test [9], 5.2 µM; in test [12] it was 42 µM; in test [14] it was 33 µM. Besides, in [16], the 50% inhibitory concentration (IC50) is 10 µM.

For the compound `OC[C@H]1N[C@H]([C@@H](O)CCCCCCc2ccccc2)[C@@H](O)[C@@H]1O`, the inhibition came out at 0% in test [1]; 3.5% in [2]; 0% in test [4]; 14.1% in [17]; 15.8% in [18]; 0% in test [10]. Moreover, the inhibition in test [11] amounted to 37.6%; in [13], 4.5%; in test [19], 39.7%; in [20], 18.6%; in [15] it was 0%. Also, the IC50 was found to be 0.13 µM in test [3]; 0.042 µM in test [6]; 7.6 µM in test [9]; 43 µM in [12]; 0.62 µM in test [16].

With `Cl.OC[C@H]1N[C@H](CCCCCCCc2ccc(F)cc2)[C@@H](O)[C@@H]1O`, the inhibition in test [1] worked out at 22.7%; in test [2] it was 13%; in test [4], 20.5%; in [18] it was 11.7%; in [10], 38.7%; in test [11] it was 37.1%. The inhibition in test [13] came out at 4%; in [20], 15.9%; in test [15] it was 42.5%. Also, the IC50 amounted to 0.043 µM in test [3]; 32.2 µM in test [5]; 0.008 µM in test [6]; 34.5 µM in [12]; 31.9 µM in test [14]; 15.6 µM in [16].

By inhibition is commonly meant how much of the control response was suppressed. As usually defined, the IC50 is the concentration at which inhibition is half-maximal.

These data come from ChEMBL document CHEMBL5331098, “Nanomolar β-glucosidase and β-galactosidase inhibition by enantiomeric α-1-C-alkyl-1,4-dideoxy-1,4-imino-arabinitol derivatives” (Eur J Med Chem, 2023).
